# Experimental data: patent publication US12201609B2, “Saroglitazar for the treatment of hepatocellular carcinoma” (CADILA HEALTHCARE LIMITED, priority 2018, dated 2025)
# Test system: Hepatocellular Carcinoma Induced by Intraperitoneal Injection of Diethylnitrosamine in C57/BL6 Mice
# Test: Saroglitazar efficacy in hepatocellular carcinoma induced by diethylnitrosamine (DEN) injection and CDAHFD feeding in mice
# Format: in vivo, C57BL/6 male mice
# Settings: CDAHFD-DEN mice; for Serum ALT levels, % Change Vs Disease Control / Serum AST levels, % Change Vs Disease Control / Serum TG levels, % Change Vs Disease Control / % animals showing liver tumor / No. of animal with tumor / No. of liver tumors/animal / Serum ALT levels / Serum AST levels / Serum TG levels: p.o.; for % animals showing liver tumor / No. of animal with tumor / No. of liver tumors/animal: 27 weeks treatment; for Serum ALT levels / Serum AST levels / Serum TG levels: at termination
# From the text: Evaluation of Saroglitazar's efficacy in Hepatocellular Carcinoma Induced by Intraperitoneal Injection of Diethylnitrosamine in C57/BL6 Mice.
# In this study, hepatocellular carcinoma (HCC) was induced in C57BL/6 male mice first by injecting them with diethylnitrosamine (DEN) and by then feeding them a choline-deficient, L-amino acid-defined, high-fat diet (CDAHFD); Developed an experimental mouse model of hepatocellular carcinoma (Ohno T, Shimizu M, Shirakami Y, Baba A, Kochi T, Kubota M, et al. (2015) Metformin Suppresses Diethylnitrosamine-Induced Liver Tumorigenesis in Obese and Diabetic C57BL/KsJ−+Leprdb/+Leprdb Mice. PLoS ONE 10(4): e0124081; Journal of Cancer, 2018; 9(5): 914-922;)
# The objective of this study was to evaluate the efficacy of Saroglitazar for prevention and or regression of hepatocellular carcinoma in mice after intraperitoneal injection of diethylnitrosamine and feeding of Choline deficient, L-amino acid-defined, High-fat Diet.
# HCC was induced in C57BL/6 male mice by feeding them a choline-deficient, L-amino acid-defined, high-fat diet (CDAHFD) and administration of diethylnitrosamine (DEN). DEN was administered one-time by intraperitoneal route at the age of 3-weeks. Treatment with Saroglitazar (1 and 3 mg/kg) was initiated after 8 weeks of CDAHFD initiation and continued for 27 weeks.
# After 8 weeks of CDAHFD diet (or DEN administration) blood collection was performed for serum ALT, AST and on the basis serum ALT level animals were divided in to following groups: • 1. Control for CDAHFD+Vehicle (n=10)—Normal Control • 2. CDAHFD—Saline+Vehicle (n=10)—CDAHFD Control • 3. CDAHFD—DEN+Vehicle (n=15)—Disease Control • 4. CDAHFD—DEN+Saroglitazar 1 mg/kg, p.o. (n=15)—D-Saro (1 mg/kg, p.o.) • 5. CDAHFD—DEN+Saroglitazar 3 mg/kg, p.o. (n=15)—D-Saro (3 mg/kg, p.o.)
# Test compound formulation was prepared in Tween 80 and 0.5% sodium CMC in ratio of 0.5:99.5 in such that volume of administration will be 10 ml/kg.
# Treatment along with diet was continued for 27 weeks.
# In this study almost 50% animals from each group were terminated at 31 weeks after DEN injection and remaining 50% animals were sacrificed at 35 weeks after DEN administration (i.e. completion of 27 weeks of treatment). At termination, blood collection was performed for serum parameters like ALT, AST and TG. Animals were sacrificed; spleen and liver will be collected and weighed. Liver will be observed for presence of tumors, number of tumors and size of tumors. Liver was collected for liver biochemistry, histology
structure (smiles),measurement,setting,value
CCO[C@@H](Cc1ccc(OCCn2c(C)ccc2-c2ccc(SC)cc2)cc1)C(=O)O [Saroglitazar],prevention of hepatic carcinogenesis,3 mg/kg dose,100%
same,tumor in liver (in words),3 mg/kg dose,did not show any tumor in liver
same,reduction in serum ALT,"3 mg/kg, vs disease control",40%
same,reduction in serum AST,"3 mg/kg, vs disease control",44%
same,effect on liver tumor incidence (in words),1 and 3 mg/kg,dose dependent effect on liver tumor incidence
same,serum triglycerides levels (in words),1 and 3 mg/kg,dose dependent reduction
same,"Serum ALT levels, % Change Vs Disease Control",Saroglitazar 1 mg/kg,−33.6%
same,"Serum AST levels, % Change Vs Disease Control",Saroglitazar 1 mg/kg,−36.2%
same,"Serum TG levels, % Change Vs Disease Control",Saroglitazar 1 mg/kg,−38.4%
same,% animals showing liver tumor,Saroglitazar 1 mg/kg,20.0%
same,No. of animal with tumor,Saroglitazar 1 mg/kg,3 out of 15
same,No. of liver tumors/animal,Saroglitazar 1 mg/kg,0.3
same,Serum ALT levels,Saroglitazar 1 mg/kg,232.3 U/L
same,Serum AST levels,Saroglitazar 1 mg/kg,231.1 U/L
same,Serum TG levels,Saroglitazar 1 mg/kg,42.7 mg/dL
same,"Serum ALT levels, % Change Vs Disease Control",Saroglitazar 3 mg/kg,−39.9%
same,"Serum AST levels, % Change Vs Disease Control",Saroglitazar 3 mg/kg,−43.9%
same,"Serum TG levels, % Change Vs Disease Control",Saroglitazar 3 mg/kg,−54.6%
same,% animals showing liver tumor,Saroglitazar 3 mg/kg,0.0%
same,No. of animal with tumor,Saroglitazar 3 mg/kg,0 out of 15
same,No. of liver tumors/animal,Saroglitazar 3 mg/kg,0.0
same,Serum ALT levels,Saroglitazar 3 mg/kg,210.5 U/L
same,Serum AST levels,Saroglitazar 3 mg/kg,203.0 U/L
same,Serum TG levels,Saroglitazar 3 mg/kg,31.5 mg/dL
same,"liver injury markers, serum ALT and AST (in words)",Saroglitazar treatment,significant reduction
